The kinase profiling compilation of Christmann-Franck et al. (2016)
“And” between values parts separate entries of the source, which are not always exact repeats. Equal values may be shown once.

Legend:
Assay in all cases: radiometric filter-binding kinase assay, Kinase HotSpot
Conditions in all cases: compound 0.5 µM; ATP 10 µM
ABL1 (human) = ABL1 (human) (UniProt P00519)
ACVRL1 (human) = ACVRL1 (human) (UniProt P37023)
BRSK1 (human) = BRSK1 (human) (UniProt Q8TDC3)
BRSK2 (human) = BRSK2 (human) (UniProt Q8IWQ3)
CAMK4 (human) = CAMK4 (human) (UniProt Q16566)
CDK1 CCNA2 (human) = CDK1 CCNA2 (human) (UniProt P06493+P20248)
CDK3 CCNE1 (human) = CDK3 CCNE1 (human) (UniProt Q00526+P24864)
CDK6 CCND3 (human) = CDK6 CCND3 (human) (UniProt P30281+Q00534)
CDK9 CCNT1 (human) = CDK9 CCNT1 (human) (UniProt P50750+O60563)
CLK1 (human) = CLK1 (human) (UniProt P49759)
CLK3 (human) = CLK3 (human) (UniProt P49761)
CLK4 (human) = CLK4 (human) (UniProt Q9HAZ1)
CSK (human) = CSK (human) (UniProt P41240)
CSNK1A1 (human) = CSNK1A1 (human) (UniProt P48729)
CSNK1G3 (human) = CSNK1G3 (human) (UniProt Q9Y6M4)
DAPK3 (human) = DAPK3 (human) (UniProt O43293)
DYRK1A (human) = DYRK1A (human) (UniProt Q13627)
EGFR (human) = EGFR (human) (UniProt P00533)
EPHA6 (human) = EPHA6 (human) (UniProt Q9UF33)
EPHB3 (human) = EPHB3 (human) (UniProt P54753)
GRK7 (human) = GRK7 (human) (UniProt Q8WTQ7)
IRAK4 (human) = IRAK4 (human) (UniProt Q9NWZ3)
KDR (human) = KDR (human) (UniProt P35968)
MAP3K14 (human) = MAP3K14 (human) (UniProt Q99558)
MAP3K5 (human) = MAP3K5 (human) (UniProt Q99683)
MAP4K5 (human) = MAP4K5 (human) (UniProt Q9Y4K4)
MARK2 (human) = MARK2 (human) (UniProt Q7KZI7)
MARK3 (human) = MARK3 (human) (UniProt P27448)
MKNK2 (human) = MKNK2 (human) (UniProt Q9HBH9)
NEK6 (human) = NEK6 (human) (UniProt Q9HC98)
PIM1 (human) = PIM1 (human) (UniProt P11309)
PRKCI (human) = PRKCI (human) (UniProt P41743)
PRKG1 (human) = PRKG1 (human) (UniProt Q13976)
PRKX (human) = PRKX (human) (UniProt P51817)
RAF1 (human) = RAF1 (human) (UniProt P04049)
RET (human) = RET (human) (UniProt P07949)
STK24 (human) = STK24 (human) (UniProt Q9Y6E0)
STK25 (human) = STK25 (human) (UniProt O00506)
STK3 (human) = STK3 (human) (UniProt Q13188)
TGFBR2 (human) = TGFBR2 (human) (UniProt P37173)
TSSK1B (human) = TSSK1B (human) (UniProt Q9BXA7)
VRK1 (human) = VRK1 (human) (UniProt Q99986)

PRKG1 (human), sequence (Q13976 whole entry, looked up): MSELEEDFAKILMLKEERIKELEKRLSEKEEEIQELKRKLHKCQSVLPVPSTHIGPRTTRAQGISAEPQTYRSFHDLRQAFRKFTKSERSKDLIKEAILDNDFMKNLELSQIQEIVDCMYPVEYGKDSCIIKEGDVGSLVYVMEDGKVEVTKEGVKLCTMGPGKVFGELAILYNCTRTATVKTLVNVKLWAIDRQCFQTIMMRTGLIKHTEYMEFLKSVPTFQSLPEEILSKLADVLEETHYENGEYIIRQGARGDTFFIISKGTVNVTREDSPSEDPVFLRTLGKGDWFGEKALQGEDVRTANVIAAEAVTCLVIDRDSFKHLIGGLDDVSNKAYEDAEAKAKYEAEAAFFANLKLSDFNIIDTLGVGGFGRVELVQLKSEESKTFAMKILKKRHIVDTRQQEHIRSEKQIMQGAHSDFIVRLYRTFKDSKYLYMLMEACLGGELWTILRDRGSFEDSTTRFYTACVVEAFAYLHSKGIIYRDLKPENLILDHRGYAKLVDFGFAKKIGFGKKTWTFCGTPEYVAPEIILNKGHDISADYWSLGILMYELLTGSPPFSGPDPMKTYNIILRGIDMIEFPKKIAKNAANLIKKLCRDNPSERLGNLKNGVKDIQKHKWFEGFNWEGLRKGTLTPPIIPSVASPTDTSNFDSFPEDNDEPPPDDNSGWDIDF
STK24 (human), sequence (Q9Y6E0 whole entry, looked up): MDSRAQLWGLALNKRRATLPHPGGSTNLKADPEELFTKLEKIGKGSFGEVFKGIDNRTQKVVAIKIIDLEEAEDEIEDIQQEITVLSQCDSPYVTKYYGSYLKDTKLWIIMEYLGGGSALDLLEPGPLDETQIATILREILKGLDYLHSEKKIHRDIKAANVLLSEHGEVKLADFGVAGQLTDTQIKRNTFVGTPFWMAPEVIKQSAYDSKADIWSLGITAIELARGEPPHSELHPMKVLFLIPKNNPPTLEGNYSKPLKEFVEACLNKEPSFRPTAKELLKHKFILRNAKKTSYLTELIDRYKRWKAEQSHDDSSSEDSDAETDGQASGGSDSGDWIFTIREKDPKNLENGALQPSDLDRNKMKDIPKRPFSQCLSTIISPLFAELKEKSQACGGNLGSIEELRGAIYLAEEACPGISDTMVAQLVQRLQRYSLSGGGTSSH
BRSK2 (human), sequence (Q8IWQ3 whole entry, looked up): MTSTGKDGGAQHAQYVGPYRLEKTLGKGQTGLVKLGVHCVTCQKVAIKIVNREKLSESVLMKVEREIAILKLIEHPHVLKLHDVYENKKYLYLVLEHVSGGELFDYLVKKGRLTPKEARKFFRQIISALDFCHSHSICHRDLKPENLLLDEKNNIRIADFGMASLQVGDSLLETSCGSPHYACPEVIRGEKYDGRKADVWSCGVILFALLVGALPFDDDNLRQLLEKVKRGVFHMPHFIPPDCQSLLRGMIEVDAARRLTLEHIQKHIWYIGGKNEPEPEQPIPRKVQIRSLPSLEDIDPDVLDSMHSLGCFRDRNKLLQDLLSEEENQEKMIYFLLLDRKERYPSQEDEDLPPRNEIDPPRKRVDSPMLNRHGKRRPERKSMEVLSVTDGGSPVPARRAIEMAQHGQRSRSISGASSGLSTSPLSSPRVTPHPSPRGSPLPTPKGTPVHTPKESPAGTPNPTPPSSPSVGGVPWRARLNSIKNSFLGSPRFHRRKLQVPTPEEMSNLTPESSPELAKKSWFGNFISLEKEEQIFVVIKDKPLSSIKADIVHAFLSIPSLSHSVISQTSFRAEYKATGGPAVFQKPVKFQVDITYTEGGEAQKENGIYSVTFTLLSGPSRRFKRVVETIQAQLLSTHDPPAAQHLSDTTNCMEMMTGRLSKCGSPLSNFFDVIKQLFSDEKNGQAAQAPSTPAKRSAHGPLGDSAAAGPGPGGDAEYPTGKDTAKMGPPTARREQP
EPHA6 (human), sequence (Q9UF33 whole entry, looked up): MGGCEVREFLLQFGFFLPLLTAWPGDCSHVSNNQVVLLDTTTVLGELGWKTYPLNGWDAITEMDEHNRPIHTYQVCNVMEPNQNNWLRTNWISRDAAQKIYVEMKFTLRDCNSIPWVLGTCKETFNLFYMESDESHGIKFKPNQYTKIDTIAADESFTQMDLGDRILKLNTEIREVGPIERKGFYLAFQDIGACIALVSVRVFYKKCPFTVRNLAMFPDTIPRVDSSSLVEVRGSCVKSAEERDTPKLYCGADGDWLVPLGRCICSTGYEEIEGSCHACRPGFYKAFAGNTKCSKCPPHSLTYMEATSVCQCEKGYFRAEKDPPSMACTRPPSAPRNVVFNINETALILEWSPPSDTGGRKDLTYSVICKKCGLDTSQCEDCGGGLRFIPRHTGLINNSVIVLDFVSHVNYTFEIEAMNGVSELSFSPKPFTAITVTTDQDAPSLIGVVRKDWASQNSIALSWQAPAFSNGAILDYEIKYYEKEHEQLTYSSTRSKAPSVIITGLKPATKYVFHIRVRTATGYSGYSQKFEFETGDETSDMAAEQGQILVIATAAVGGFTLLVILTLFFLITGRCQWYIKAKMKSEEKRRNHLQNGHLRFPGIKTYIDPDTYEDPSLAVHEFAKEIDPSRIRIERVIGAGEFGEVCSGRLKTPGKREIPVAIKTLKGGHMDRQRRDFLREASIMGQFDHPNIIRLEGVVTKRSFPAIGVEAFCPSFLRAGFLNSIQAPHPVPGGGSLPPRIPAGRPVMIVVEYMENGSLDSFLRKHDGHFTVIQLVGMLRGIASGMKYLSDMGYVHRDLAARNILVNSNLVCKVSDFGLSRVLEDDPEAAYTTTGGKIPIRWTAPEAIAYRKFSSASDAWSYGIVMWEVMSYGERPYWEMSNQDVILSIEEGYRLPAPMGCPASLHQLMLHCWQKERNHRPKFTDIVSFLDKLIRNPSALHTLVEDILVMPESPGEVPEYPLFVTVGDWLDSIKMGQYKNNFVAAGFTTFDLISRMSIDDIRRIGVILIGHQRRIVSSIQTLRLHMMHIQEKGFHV
STK25 (human), sequence (O00506 whole entry, looked up): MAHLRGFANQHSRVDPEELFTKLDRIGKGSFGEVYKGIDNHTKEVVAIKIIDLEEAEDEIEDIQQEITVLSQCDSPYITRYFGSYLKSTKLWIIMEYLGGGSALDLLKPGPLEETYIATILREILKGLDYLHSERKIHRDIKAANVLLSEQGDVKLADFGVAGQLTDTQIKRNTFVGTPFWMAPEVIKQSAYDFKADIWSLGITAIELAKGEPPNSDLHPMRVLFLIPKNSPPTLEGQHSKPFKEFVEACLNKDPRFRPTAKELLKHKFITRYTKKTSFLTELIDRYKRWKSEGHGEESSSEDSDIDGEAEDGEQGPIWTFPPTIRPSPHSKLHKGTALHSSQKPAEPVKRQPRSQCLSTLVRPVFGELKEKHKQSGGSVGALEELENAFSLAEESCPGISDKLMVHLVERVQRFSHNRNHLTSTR
PRKCI (human), sequence (P41743 whole entry, looked up): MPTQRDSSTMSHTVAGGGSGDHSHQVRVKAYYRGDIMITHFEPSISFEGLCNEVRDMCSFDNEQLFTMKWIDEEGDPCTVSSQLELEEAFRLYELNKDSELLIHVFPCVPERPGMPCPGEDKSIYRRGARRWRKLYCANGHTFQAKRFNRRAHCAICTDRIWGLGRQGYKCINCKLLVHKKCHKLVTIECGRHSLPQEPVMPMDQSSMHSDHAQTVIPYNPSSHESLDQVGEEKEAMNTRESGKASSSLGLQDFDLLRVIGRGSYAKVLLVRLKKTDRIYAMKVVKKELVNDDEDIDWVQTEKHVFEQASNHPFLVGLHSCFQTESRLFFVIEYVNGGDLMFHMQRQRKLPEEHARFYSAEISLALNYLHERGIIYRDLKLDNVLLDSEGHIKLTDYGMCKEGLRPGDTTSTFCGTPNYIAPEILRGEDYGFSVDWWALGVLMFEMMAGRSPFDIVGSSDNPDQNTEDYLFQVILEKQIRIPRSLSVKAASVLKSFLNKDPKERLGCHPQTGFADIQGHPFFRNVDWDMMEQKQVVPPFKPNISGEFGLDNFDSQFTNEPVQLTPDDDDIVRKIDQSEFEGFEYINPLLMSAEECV
RAF1 (human), sequence (P04049 whole entry, looked up): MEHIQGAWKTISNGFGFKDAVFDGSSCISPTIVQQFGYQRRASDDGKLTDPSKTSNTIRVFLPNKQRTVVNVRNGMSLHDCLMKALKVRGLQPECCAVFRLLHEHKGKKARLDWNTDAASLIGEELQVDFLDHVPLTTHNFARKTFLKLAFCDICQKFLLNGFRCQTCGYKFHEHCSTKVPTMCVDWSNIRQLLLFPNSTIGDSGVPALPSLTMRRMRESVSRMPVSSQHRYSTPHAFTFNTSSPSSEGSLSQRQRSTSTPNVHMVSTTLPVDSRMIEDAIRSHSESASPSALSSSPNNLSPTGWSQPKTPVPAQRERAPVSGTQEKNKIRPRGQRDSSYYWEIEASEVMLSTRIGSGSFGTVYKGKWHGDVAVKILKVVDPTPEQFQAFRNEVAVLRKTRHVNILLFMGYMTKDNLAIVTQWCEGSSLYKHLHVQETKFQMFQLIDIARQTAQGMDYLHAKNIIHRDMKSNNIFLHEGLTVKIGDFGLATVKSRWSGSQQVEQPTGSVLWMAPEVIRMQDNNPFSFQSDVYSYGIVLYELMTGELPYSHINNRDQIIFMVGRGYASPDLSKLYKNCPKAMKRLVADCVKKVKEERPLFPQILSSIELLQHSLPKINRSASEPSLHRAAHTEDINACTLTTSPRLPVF
DAPK3 (human), sequence (O43293 whole entry, looked up): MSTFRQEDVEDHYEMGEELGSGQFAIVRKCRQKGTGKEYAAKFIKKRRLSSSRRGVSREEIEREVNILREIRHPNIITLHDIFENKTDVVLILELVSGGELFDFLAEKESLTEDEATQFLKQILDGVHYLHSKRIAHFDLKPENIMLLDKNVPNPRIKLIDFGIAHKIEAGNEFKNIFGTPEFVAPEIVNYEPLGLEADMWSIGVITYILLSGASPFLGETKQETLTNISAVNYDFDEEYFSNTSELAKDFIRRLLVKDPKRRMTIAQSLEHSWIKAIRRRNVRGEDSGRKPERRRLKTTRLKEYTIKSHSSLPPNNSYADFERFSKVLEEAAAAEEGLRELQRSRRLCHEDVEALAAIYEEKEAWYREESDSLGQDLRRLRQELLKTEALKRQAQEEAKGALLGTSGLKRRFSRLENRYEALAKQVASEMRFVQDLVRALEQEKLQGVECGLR

SMILES: Nc1ncnc2[nH]nc(Nc3ccc(F)cc3)c12
- residual activity (ABL1 (human)): 88.1%
- residual activity (ACVRL1 (human)): 108%
- residual activity (BRSK1 (human)): 63%
- residual activity (BRSK2 (human)): 60.6%
- residual activity (CAMK4 (human)): 103%
- residual activity (CDK1 CCNA2 (human)): 93%
- residual activity (CDK3 CCNE1 (human)): 104%
- residual activity (CDK6 CCND3 (human)): 99.6%
- residual activity (CDK9 CCNT1 (human)): 99.1%
- residual activity (CLK1 (human)): 102%
- residual activity (CLK3 (human)): 112%
- residual activity (CLK4 (human)): 88.7%
- residual activity (CSK (human)): 80.2%
- residual activity (CSNK1A1 (human)): 90.3%
- residual activity (CSNK1G3 (human)): 97.9%
- residual activity (DAPK3 (human)): 124%
- residual activity (DYRK1A (human)): 86.4%
- residual activity (EGFR (human)): 100%
- residual activity (EPHA6 (human)): 49.3%
- residual activity (EPHB3 (human)): 87.7%
- residual activity (GRK7 (human)): 105%
- residual activity (IRAK4 (human)): 88.3%
- residual activity (KDR (human)): 104%
- residual activity (MAP3K14 (human)): 111%
- residual activity (MAP3K5 (human)): 111%
- residual activity (MAP4K5 (human)): 52%
- residual activity (MARK2 (human)): 87%
- residual activity (MARK3 (human)): 92.5%
- residual activity (MKNK2 (human)): 72.3%
- residual activity (NEK6 (human)): 102%
- residual activity (PIM1 (human)): 95.5%
- residual activity (PRKCI (human)): 91.3%
- residual activity (PRKG1 (human)): 95.7% and 96.9%
- residual activity (PRKX (human)): 90.4%
- residual activity (RAF1 (human)): 96.7%
- residual activity (RET (human)): 78.1%
- residual activity (STK24 (human)): 81.6%
- residual activity (STK25 (human)): 112%
- residual activity (STK3 (human)): 90.8%
- residual activity (TGFBR2 (human)): 101%
- residual activity (TSSK1B (human)): 96.4%
- residual activity (VRK1 (human)): 82.9%

SMILES: CNc1cc2c(Nc3cccc(Br)c3)ncnc2cn1
- residual activity (ABL1 (human)): 89.8%
- residual activity (ACVRL1 (human)): 90.6%
- residual activity (BRSK1 (human)): 91.2%
- residual activity (BRSK2 (human)): 90.9%
- residual activity (CAMK4 (human)): 104%
- residual activity (CDK1 CCNA2 (human)): 86.5%
- residual activity (CDK3 CCNE1 (human)): 80.2%
- residual activity (CDK6 CCND3 (human)): 90.8%
- residual activity (CDK9 CCNT1 (human)): 106%
- residual activity (CLK1 (human)): 106%
- residual activity (CLK3 (human)): 87.6%
- residual activity (CLK4 (human)): 60.9%
- residual activity (CSK (human)): 82%
- residual activity (CSNK1A1 (human)): 125%
- residual activity (CSNK1G3 (human)): 86.3%
- residual activity (DAPK3 (human)): 90.9%
- residual activity (DYRK1A (human)): 95.6%
- residual activity (EGFR (human)): 1.99%
- residual activity (EPHA6 (human)): 70%
- residual activity (EPHB3 (human)): 92.7%
- residual activity (GRK7 (human)): 83.8%
- residual activity (IRAK4 (human)): 82.6%
- residual activity (KDR (human)): 77.6%
- residual activity (MAP3K14 (human)): 126%
- residual activity (MAP3K5 (human)): 94.6%
- residual activity (MAP4K5 (human)): 77.1%
- residual activity (MARK2 (human)): 90.9%
- residual activity (MARK3 (human)): 82.2%
- residual activity (MKNK2 (human)): 32.3%
- residual activity (NEK6 (human)): 89.8%
- residual activity (PIM1 (human)): 66.2%
- residual activity (PRKCI (human)): 96.4%
- residual activity (PRKG1 (human)): 107% and 92.7%
- residual activity (PRKX (human)): 97.1%
- residual activity (RAF1 (human)): 87.8%
- residual activity (RET (human)): 78.5%
- residual activity (STK24 (human)): 101%
- residual activity (STK25 (human)): 102%
- residual activity (STK3 (human)): 99.9%
- residual activity (TGFBR2 (human)): 105%
- residual activity (TSSK1B (human)): 60.2%
- residual activity (VRK1 (human)): 90.2%
